From patent US6951876B2, “Sulfamoylheteroaryl pyrazole compounds as anti-inflammatory/analgesic agents” (Pfizer, Inc., priority 1999, dated 2005)
Structures can show the parent of a compound that is named as a salt.

Row | SMILES | melting point
1 | Cl.NS(=O)(=O)c1ccc(-n2nc(C(F)(F)F)c(F)c2-c2ccc(-c3cscn3)cc2)cn1 | 145 °C
2 | NS(=O)(=O)c1ccc(-n2nc(C(F)(F)F)cc2-c2ccc(-c3ccco3)cc2)cn1 (as salt: hydrochloride) [Example 2, 5-[5-[4-(2-Furyl)phenyl]-3-(trifluoromethyl)-1H-pyrazol-1-yl]-2-pyridinesulfonamide] | 140 to 170 °C
3 | NS(=O)(=O)c1ccc(-n2nc(C(F)(F)F)cc2-c2ccc(-c3cscn3)c(C(F)(F)F)c2)cn1 [Example 5, 5-{5-[4-(1,3-Thiazol-4-yl)-3-(trifluoromethyl)phenyl]-3-(trifluoromethyl)-1H-pyrazol-1-yl}-2-pyridinesulfonamide] | 114 °C
4 | CCc1c(-c2ccc(-c3cscn3)cc2)c(C(F)(F)F)nn1-c1ccc(S(N)(=O)=O)nc1.Cl | 141 °C
5 | CCc1c(C(F)(F)F)nn(-c2ccc(S(N)(=O)=O)nc2)c1-c1ccc(-c2cncs2)cc1.Cl | 169 °C
6 | Cl.NS(=O)(=O)c1ccc(-n2nc(C(F)(F)F)cc2-c2ccc(-c3cscn3)cc2)cn1 | 121 °C
7 | Cl.NS(=O)(=O)c1ccc(-n2nc(C(F)(F)F)c(Cl)c2-c2ccc(-c3cscn3)cc2)cn1 | 157 °C
8 | NS(=O)(=O)c1ccc(-n2nc(C(F)(F)F)c(Cl)c2-c2ccc(-c3cncs3)c(Cl)c2)cn1 (as salt: methanesulfonate) [Example 16, 5-[4-Chloro-5-[3-chloro-4-(1,3-thiazol-5-yl)phenyl]-3-trifluoromethyl-1H-pyrazol-1-yl]-2-pyridinesulfonamide] | 191 to 193 °C
9 | Cc1cc(-c2cc(C(F)(F)F)nn2-c2ccc(S(N)(=O)=O)cn2)ccc1-c1cscn1.Cl | 138 to 140 °C
10 | NS(=O)(=O)c1ccc(-n2nc(C(F)(F)F)cc2-c2ccc(-c3ncco3)c(Cl)c2)cn1 (as salt: hydrochloride) [Example 3, 5-[5-[3-Chloro-4-(1,3-oxazol-2-yl)phenyl]-3-(trifluoromethyl)-1H-pyrazol-1-yl]-2-pyridinesulfonamide] | 156 °C
11 | Cl.NS(=O)(=O)c1ccc(-n2nc(C(F)(F)F)cc2-c2ccc(-c3cncs3)cc2)cn1 | 138 °C
